{"source": "paper PMC8125234", "about": "“Cardiolipin Stabilizes and Increases Catalytic Efficiency of Carnitine Palmitoyltransferase II and Its Variants S113L, P50H, and Y479F” (International Journal of Molecular Sciences, 2021)", "key": {"CPT II variant P50H": {"biological_target": "T1, CPT II variant P50H (Homo sapiens, UniProt P23786, P50H)", "T1 construct": "made in house; host or cells: Escherichia coli BL21Gold DE", "T1 sequence (P23786 26-658 P50H)": "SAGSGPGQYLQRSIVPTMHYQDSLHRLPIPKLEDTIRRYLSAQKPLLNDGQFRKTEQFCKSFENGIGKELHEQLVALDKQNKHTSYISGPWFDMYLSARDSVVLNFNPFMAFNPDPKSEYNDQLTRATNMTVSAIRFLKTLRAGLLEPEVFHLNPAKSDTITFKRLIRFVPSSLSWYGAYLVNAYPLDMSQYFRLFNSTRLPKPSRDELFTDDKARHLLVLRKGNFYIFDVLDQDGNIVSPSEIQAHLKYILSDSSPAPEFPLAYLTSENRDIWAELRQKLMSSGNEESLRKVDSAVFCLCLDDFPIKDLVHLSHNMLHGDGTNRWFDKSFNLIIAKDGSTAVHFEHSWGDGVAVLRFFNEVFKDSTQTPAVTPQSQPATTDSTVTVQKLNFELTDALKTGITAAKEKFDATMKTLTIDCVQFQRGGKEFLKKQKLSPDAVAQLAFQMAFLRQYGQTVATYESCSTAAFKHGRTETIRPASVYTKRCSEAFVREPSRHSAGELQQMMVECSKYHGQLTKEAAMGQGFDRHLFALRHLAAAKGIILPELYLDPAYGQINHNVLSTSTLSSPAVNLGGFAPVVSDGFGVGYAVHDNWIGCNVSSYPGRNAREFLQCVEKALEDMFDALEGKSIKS", "assay": "Influence of CL on the enzyme activity", "format": "biochemical", "conditions": "for Maximal Enzymatic Activity: w/o CL = 100", "description": "(§1) Then, the effect of CL, as a potential stabilizing agent, was investigated in the activity assay. Therefore, 0.1 mg/mL recombinant enzyme was incubated with various concentrations of CL (0.125, 0.25 or 0.5 mM) or buffer at 30 and 42 °C, respectively.\n(§2) Before activity measurements, the storage buffer of the enzymes was replaced with assay buffer (50 mM KH2PO4, 120 mM KCl, 1 mM EDTA-Na4) using vivaspin turbo 4 tubes (Satorius Stedim biotech GmbH, Göttingen, Germany) at 4 °C. The pH of assay buffer was adjusted with KOH to 7.4. The storage buffer was diluted at least 1:500 in assay buffer. In addition, before each experimental set up, the protein samples were centrifuged at 16,000× g for 5 min at 4 °C to remove any micro-aggregates. After that, the protein concentration was determined using bicinchoninic acid (BCA) protein assay kit (Thermo Fisher Scientific GmbH, Berlin, Germany). The enzyme activity of recombinant CPT II was performed following Rufer et al. with modifications described elsewhere. […] After pre-conditioning the mixture to 25 °C for 2 min, the reaction was started by adding 15 nM of recombinant enzyme. The reverse reaction of CPT II was detected with the enzyme activity assay. CPT II catalyzed the transfer of fatty acid residue from Pal-CoA to L-carnitine with release of CoA and Pal-carnitine. The released CoA was then detected by the reaction of the free thiol group with DTNB, forming 5-mercapto-(2-nitrobenzoic acid). This compound has a molar extinction coefficient of 13,600 M^−1 cm^−1 at a wavelength of 410 nm, and its formation was followed spectroscopically. […] The slope of the progress curve was used to determine the reaction velocity.\n(§3) The purified enzymes were incubated at different temperatures (30, 37, 40 and 42 °C) using a protein concentration of 1 mg/mL during the incubation periods to investigated the half-lives of WT and variants. 0.1 mg/mL enzyme was incubated with or without CL (0.125, 0.25 and 0.5 mM) in the assay buffer. The enzyme activities were determined by adding 15 nM of pre-incubated enzyme according to Section 4.3 after various incubation times up to 60 min at an assay temperature of 25 °C. Experiments were done at least three times independently as double determination."}, "CPT II variant S113L [1]": {"biological_target": "T2, CPT II variant S113L (Homo sapiens, UniProt P23786, S113L)", "T2 construct": "made in house; host or cells: Escherichia coli BL21Gold DE", "T2 sequence (P23786 26-658 S113L)": "T1 sequence (P23786 26-658 P50H) with H25P, S88L", "assay": "Influence of CL on the enzyme activity", "format": "biochemical", "conditions": "for Maximal Enzymatic Activity: w/o CL = 100", "description": "as §1, §2, §3"}, "CPT II variant S113L [2]": {"biological_target": "T2, CPT II variant S113L", "assay": "Lipid binding assay (membrane lipid strips)", "conditions": "0.4 mg enzyme, 100 pmol lipid spots", "description": "Direct interaction of CPT II WT and variants with phospholipids of the mitochondrial membrane was assessed using membrane lipid strips (Echelon Biosciences, Salt Lake City, Utah, USA). The membrane was spotted with 100 pmol of various cell membrane lipids. The assay was performed following manufacturer’s instructions with some modifications explained in the following. At first, the membrane was washed twice in phosphate buffered saline (PBS). After 1 h incubation with blocking solution (3% BSA fatty acid-free in PBS) at room temperature, the membrane was incubated with purified CPT II WT or variant (final amount 0.4 mg protein) for 2 h at 4 °C. After three washing steps, a-His-Probe (H3) mouse monoclonal antibody (Santa Cruz Biotech, Santa Cruz, CA, USA, 1:1000 dilution in PBS containing 3% BSA) was added to the membrane over night at 4 °C. The membrane was washed three times with PBS and incubated with mouse IgG horseradish peroxidase-linked whole antibody (from sheep, Amersham, Little Chalfont, Buckinghamshire, UK) for 1 h at 4 °C. The interaction was visualized by ECL Western blotting detection reagents (Amersham, Little Chalfont, Buckinghamshire, UK)."}}, "note": "Residue numbers refer to the chain shown, from its start.", "data": [{"substance": "Cardiolipin [CL]", "values": [{"measurement": "Increase of the enzymatic activity by CL", "setting": "CPT II variant P50H", "value": "marginal effect"}, {"measurement": "Maximal Enzymatic Activity", "setting": "CPT II variant P50H; 0.25 mM CL", "value": "113.0 ± 7.6", "unit": "%"}, {"measurement": "Maximal Enzymatic Activity", "setting": "CPT II variant P50H; 0.5 mM CL", "value": "94.5 ± 6.4", "unit": "%"}, {"measurement": "Enzymatic activity in the presence of CL", "setting": "CPT II variant P50H; before incubation periods", "value": 113, "unit": "%"}, {"measurement": "Effect of CL on maintenance of enzyme activity", "setting": "CPT II variant P50H; incubation at 42 °C", "value": "almost no effect"}, {"measurement": "Increase of the enzymatic activity by CL", "setting": "CPT II variant S113L [1]", "value": "marginal effect"}, {"measurement": "Maximal Enzymatic Activity", "setting": "CPT II variant S113L [1]; 0.25 mM CL", "value": "114.5 ± 8.3", "unit": "%"}, {"measurement": "Maximal Enzymatic Activity", "setting": "CPT II variant S113L [1]; 0.5 mM CL", "value": "98.7 ± 5.1", "unit": "%"}, {"measurement": "Enzymatic activity in the presence of CL", "setting": "CPT II variant S113L [1]; before incubation periods", "value": 115, "unit": "%"}, {"measurement": "Signal for interaction on membrane lipid strips", "setting": "CPT II variant S113L [2]", "value": "clearly proven"}]}]}
